We go through 82 compounds from patent publication US4124726A, “Anti-inflammatory agent of benzoyl derivative” (priority 1976, dated 1978).

SMILES strings stand for the structures. A value given as a limit tells only on which side of the number the result lay.

One may read the LD50 as the dose at which mortality reaches 50%. A low value points to a more toxic substance.

The subject of one data set is platelet aggregation. Description: blood platelet aggregation inhibition, collagen as inducer. It is filed as cell-based. The following applies: 10^-4 mole, rabbit PRP. The text has this: Blood platelet aggregation inhibiting effect
Male rabbits (Japan original white strain 3.3 to 3.6 kg) were anesthetized with Thiopental sodium and blood was sampled from the carotid artery.

The nature of a further data set: in vivo. As to conditions: mouse, po. The protocol: Each sample was dissolved in olive oil or dispersed in 1% Tween 20 aqueous solution.

With `Cc1ccc(C(=O)Cc2ccccc2)cc1` [compound 48], in the data set with platelet aggregation, the “Blood platelet agg. inh. (percentage inhibition of platelet aggregation)” value was found to be 20.5%.
Consider `CCCCCCCCCCCc1ccc(C(=O)Cc2ccccc2)cc1` [compound 51], for which, in the data set on platelet aggregation, the “Blood platelet agg. inh. (percentage inhibition of platelet aggregation)” value is reported as 9.5%.
In the case of `CCCCCCCCCCCCc1ccc(C(=O)Cc2ccccc2)cc1` [compound 52], the “Blood platelet agg. inh. (percentage inhibition of platelet aggregation)” value in the data set with platelet aggregation is listed as 6.8%.
Take `CCc1ccc(C(=O)C(=O)c2ccccc2)cc1` [compound 55]: the “Blood platelet agg. inh. (percentage inhibition of platelet aggregation)” value in the data set with platelet aggregation came out at 23.3%.
Still for that read-out and setting: to `CCCOc1ccc(C(=O)Cc2ccccc2)cc1` [compound 58] belongs 20.1%; to `CCCCCOc1ccc(C(=O)Cc2ccccc2)cc1` [compound 59], 25.6%; to `COc1ccc(C(=O)Cc2ccc(Cl)cc2)cc1` [compound 60], 4.0%.
On the same count and under the same terms, the value for `Cc1ccc(C(=O)c2ccccc2)cc1` [compound 65] was 21.0%; that for `CCCCCCCCCCc1ccc(C(=O)c2ccccc2)cc1` [compound 68] was 16.5%; that for `CCCCCCCCCCCCc1ccc(C(=O)c2ccccc2)cc1` [compound 69] was 13.5%.
Turning to `CCCCCCCCCCCc1ccc(C(=O)c2ccccc2)cc1` [compound 71], in the data set on platelet aggregation, the “Blood platelet agg. inh. (percentage inhibition of platelet aggregation)” value came to 19.5%.
The same measure, in the same setting: the value for `CCCCc1ccc(CCCC)c(C(=O)c2ccccc2)c1` [compound 77] was 25.1%; that for `Cc1cc(C)c(C)c(C(=O)c2ccccc2)c1C` [compound 78] was 19.9%; that for `CCc1ccc(CC)c(C(=O)c2ccccc2)c1` [compound 80] was 30.3%.
Still for that read-out and setting: the value for `CCOc1ccc(C(=O)c2ccccc2)cc1` [compound 81] was 18.3%; that for `C=Cc1ccc(C(=O)c2ccccc2)cc1` [compound 82] was 20.5%; that for `Cc1ccc(C(=O)c2ccc(C)cc2)cc1` [compound 83] was 27.6%.
Regarding `Cc1ccc(C(=O)c2c(C)cc(C)cc2C)cc1` [compound 86], the “Blood platelet agg. inh. (percentage inhibition of platelet aggregation)” value with platelet aggregation came to 28.3%.
The same measure, in the same setting: the value for `CCCc1ccc(C(=O)c2cccc(C)c2)cc1` [compound 87] was 30.1%.
As to `CCCCc1ccc(C(=O)c2cccc(C)c2)cc1` [compound 88], the “Blood platelet agg. inh. (percentage inhibition of platelet aggregation)” value in the data set on platelet aggregation amounted to 24.5%.
`CCCc1ccc(C(=O)c2ccc(OC)cc2)cc1` [compound 93]: in the data set with platelet aggregation, the “Blood platelet agg. inh. (percentage inhibition of platelet aggregation)” value was determined as 24.4%.
Turning to `CCCCOc1ccc(C(=O)c2ccc(CCCC)cc2)cc1` [compound 95], the “Blood platelet agg. inh. (percentage inhibition of platelet aggregation)” value in the data set with platelet aggregation amounted to 30.0%.
Take `CCCc1ccc(C(=O)c2ccc(C)cc2C)cc1` [compound 96]: the “Blood platelet agg. inh. (percentage inhibition of platelet aggregation)” value with platelet aggregation was found to be 28.5%.
On the same count and under the same terms, the value for `CCCc1ccc(C(=O)c2c(C)cc(C)cc2C)cc1` [compound 97] was 26.8%; that for `CCCCCCCc1ccc(C(=O)c2ccc(CCCC)cc2)cc1` [compound 100] was 22.4%.
Still for that read-out and setting: the value for `CCCCCCCCc1ccc(C(=O)c2ccc(CCCC)cc2)cc1` [compound 101] was 27.9%.
On to `CCCCCCCCCc1ccc(C(=O)c2ccc(CCCC)cc2)cc1` [compound 102], for which the “Blood platelet agg. inh. (percentage inhibition of platelet aggregation)” value in the data set with platelet aggregation was found to be 30.4%.
In the case of `Cc1cc(C)c(C(=O)c2ccc(O)cc2)c(C)c1` [compound 108], in the data set on platelet aggregation, the “Blood platelet agg. inh. (percentage inhibition of platelet aggregation)” value came to 28.4%.
On the same count and under the same terms, the value for `O=C(c1ccccc1)c1ccc(O)cc1` [compound 109] was 13.7%; that for `CCCc1ccc(C(=O)c2ccc(CCC)cc2)cc1` [compound 110] was 20.5%; that for `CCCCCc1ccc(C(=O)c2ccc(CCCCC)cc2)cc1` [compound 111] was 10.3%.
Still for that read-out and setting: the value for `CCCc1ccc(C(=O)c2ccc(CC)cc2)cc1` [compound 112] was 11.8%.
Same read-out and setting: to `O=C(c1ccc(F)cc1)c1ccccc1Cl` [compound 115] belongs 25.4%.
In “in vivo”, `COc1ccc(C(=O)c2ccccc2F)cc1` [compound 116] registered an LD50 at 72 h of 4000 mg/kg.
Still for that read-out and setting: the value for `CC(C)c1ccc(C(=O)c2ccccc2F)cc1` [compound 117] was 1500 mg/kg; that for `CC(C)Cc1ccc(C(=O)c2ccccc2F)cc1` [compound 118] was 2000 mg/kg.
As for `CCC(C)c1ccc(C(=O)c2ccccc2F)cc1` (stereo not shown) [compound 119], the LD50 at 72 h in “in vivo” was found to be 2000 mg/kg.
Still for that read-out and setting: to `CC(C)(C)c1ccc(C(=O)c2ccccc2F)cc1` [compound 120] belongs 750 mg/kg.
`CCC(C)(C)c1ccc(C(=O)c2ccccc2F)cc1` [compound 122] gave an LD50 at 72 h in the data set “in vivo” of 2000 mg/kg.
Compound `CCCCc1ccc(C(=O)c2cccc(F)c2)cc1` [compound 123] gave a median lethal dose (LD50) at 72 h in “in vivo” of 1500 mg/kg.
On to `CCCCCc1ccc(C(=O)c2cccc(F)c2)cc1` [compound 124], for which the 50% lethal dose (LD50) at 72 h in the data set “in vivo” turned out to be 3000 mg/kg.
Compound `Cc1cc(C)c(C(=O)c2cccc(F)c2)c(C)c1` [compound 125] came in with an LD50 at 72 h in the data set “in vivo” of 1000 mg/kg.
Same read-out and setting: to `Cc1ccc(C(=O)c2cccc(F)c2)c(C)c1` [compound 126] belongs 1000 mg/kg.
On the same count and under the same terms, the value for `CCCCc1ccc(C(=O)c2ccc(F)cc2)cc1` [compound 127] was 5000 mg/kg; that for `CCCCCc1ccc(C(=O)c2ccc(F)cc2)cc1` [compound 128] was 4000 mg/kg; that for `CCCCCCCCc1ccc(C(=O)c2ccc(F)cc2)cc1` [compound 129] was > 10000 mg/kg.
The same measure, in the same setting: to `Cc1ccc(C(=O)c2ccc(F)cc2)c(C)c1` [compound 130] belongs 2000 mg/kg; to `Cc1cc(C)c(C(=O)c2ccc(F)cc2)c(C)c1` [compound 131], 2000 mg/kg; to `CCCc1ccc(C(=O)c2ccccc2Cl)cc1` [compound 132], 2000 mg/kg.
Turning to `CCCCCc1ccc(C(=O)c2ccccc2Cl)cc1` [compound 133], in “in vivo”, the LD50 at 72 h is 2000 mg/kg.
In the data set “in vivo”, `CCCCCCCCc1ccc(C(=O)c2ccccc2Cl)cc1` [compound 134] yielded an LD50 at 72 h of 3000 mg/kg.
`Cc1ccc(C(=O)c2ccccc2Cl)c(C)c1` [compound 135] registered a 50% lethal dose (LD50) at 72 h in the data set “in vivo” of 1000 mg/kg.
In turn, `COc1ccc(C(=O)c2ccc(Cl)cc2)cc1` [compound 136] showed an LD50 at 72 h in the data set “in vivo” of 2000 mg/kg.
On the same count and under the same terms, the value for `CCCCOc1ccc(C(=O)c2ccc(Cl)cc2)cc1` [compound 137] was 2000 mg/kg; that for `CCCCCCOc1ccc(C(=O)c2ccc(Cl)cc2)cc1` [compound 138] was 2500 mg/kg.
On the same count and under the same terms, to `CCCc1ccc(C(=O)c2cccc(Cl)c2)cc1` [compound 139] belongs 1000 mg/kg; to `CCCCCc1ccc(C(=O)c2cccc(Cl)c2)cc1` [compound 140], 1000 mg/kg.
Regarding `CCCCCCCCc1ccc(C(=O)c2cccc(Cl)c2)cc1` [compound 141], the LD50 at 72 h in “in vivo” is 2000 mg/kg.
The same measure, in the same setting: the value for `CCCc1ccc(C(=O)c2ccccc2Br)cc1` [compound 142] was 1500 mg/kg.
Same read-out and setting: the value for `CCCCc1ccc(C(=O)c2ccccc2Br)cc1` [compound 143] was 1500 mg/kg; that for `CCCCCc1ccc(C(=O)c2ccccc2Br)cc1` [compound 144] was 1500 mg/kg.
The same measure, in the same setting: the value for `CCCCCCCCc1ccc(C(=O)c2ccccc2Br)cc1` [compound 145] was 2000 mg/kg; that for `Cc1ccc(C(=O)c2ccccc2Br)c(C)c1` [compound 146] was 1000 mg/kg.
As for `Cc1cc(C)c(C(=O)c2ccccc2Br)c(C)c1` [compound 147], in the data set “in vivo”, the LD50 at 72 h is 1000 mg/kg.
On the same count and under the same terms, the value for `CCCCCCCCc1ccc(C(=O)c2cccc(Br)c2)cc1` [compound 148] was 2000 mg/kg.
Same read-out and setting: the value for `Cc1ccc(C(=O)c2cccc(Br)c2)c(C)c1` [compound 149] was 500 mg/kg; that for `CCCc1ccc(C(=O)c2ccc(Br)cc2)cc1` [compound 150] was 2000 mg/kg.
Still for that read-out and setting: to `CCCCCCCCc1ccc(C(=O)c2ccc(Br)cc2)cc1` [compound 151] belongs 2500 mg/kg; to `Cc1ccc(C(=O)c2ccc(Br)cc2)c(C)c1` [compound 152], 1500 mg/kg; to `Cc1cc(C)c(C(=O)c2ccc(Br)cc2)c(C)c1` [compound 153], 1500 mg/kg.
For `CCCc1ccc(C(=O)c2ccccc2I)cc1` [compound 154], in “in vivo”, the LD50 at 72 h is > 10000 mg/kg.
For `CCCCc1ccc(C(=O)c2ccccc2I)cc1` [compound 155], the LD50 at 72 h in the data set “in vivo” is > 10000 mg/kg.
As for `CCCCCc1ccc(C(=O)c2ccccc2I)cc1` [compound 156], in “in vivo”, the LD50 at 72 h is > 10000 mg/kg.
With `CCCCCCCCc1ccc(C(=O)c2ccccc2I)cc1` [compound 157], in the data set “in vivo”, the median lethal dose (LD50) at 72 h was > 10000 mg/kg.
Consider `Cc1ccc(C(=O)c2ccccc2I)c(C)c1` [compound 158], for which, in “in vivo”, the LD50 at 72 h is 2000 mg/kg.
On the same count and under the same terms, the value for `Cc1cc(C)c(C(=O)c2ccccc2I)c(C)c1` [compound 159] was 1000 mg/kg.
The same measure, in the same setting: the value for `CCCCc1ccc(C(=O)c2cccc(I)c2)cc1` [compound 160] was 2500 mg/kg.
In “in vivo”, `Cc1ccc(C(=O)c2cccc(I)c2)c(C)c1` [compound 162] displayed an LD50 at 72 h of 1500 mg/kg.
With `Cc1cc(C)c(C(=O)c2cccc(I)c2)c(C)c1` [compound 163], in the data set “in vivo”, the LD50 at 72 h turned out to be 1500 mg/kg.
On to `CCCCCCCCc1ccc(C(=O)c2ccc(I)cc2)cc1` [compound 164], for which, in the data set “in vivo”, the median lethal dose (LD50) at 72 h is > 10000 mg/kg.
The same measure, in the same setting: the value for `Cc1ccc(C(=O)c2ccc(I)cc2)c(C)c1` [compound 165] was 5000 mg/kg; that for `Cc1cc(C)c(C(=O)c2ccc(I)cc2)c(C)c1` [compound 166] was 5000 mg/kg.
